Read-outs that look alike come from different tables or passages of the source.
How the values were obtained:
[1] = molecular target: BTK enzyme (recombinant full-length BTK, hBTK) (Homo sapiens (Human), UniProt Q06187); assay: BTK enzymatic activity LANCE TR-FRET assay; type: biochemical; conditions: 50 pM hBTK, 25 μM ATP, 2 μM biotin-A5-peptide; compound range 1 μM to 0.017 nM; read-out: BTK binding IC50
Protocol: Btk Enzyme Activity Assay Methods
BTK enzymatic activity was determined with the LANCE (Lanthanide Chelate Excite) TR-FRET (Time-resolved fluorescence resonance energy transfer) assay. […] Phosphorylation reactions were allowed to proceed for 120 minutes. […] After 60 minutes incubation with detection reagents, reaction plates were read on a PerkinElmer EnVision plate reader using standard TR-FRET protocol. […] IC50 values were determined by 4 parameter robust fit of TR-FRET ratio values vs. (Log10) compound concentrations.

[2] = system: adenosine uptake into HeLa cells; assay: [3H]Adenosine uptake assay in HeLa cells; type: cell-based; conditions: [3H]adenosine accumulation in HeLa cells, compound range 10 μM to 0.032 nM, read-out: ADU inhibition IC50
Protocol: Compounds are also screened in an adenosine uptake functional cellular assay using the protocol described below:
[^3H]Adenosine Uptake Assay Methods
Adenosine uptake activity was determined by monitoring the accumulation of tritiated adenosine into HeLa cells (ATCC catalog # CCL-2) using a PMT-based radiometric detection instrument. In this assay, the potency (IC50) of each compound was determined from a ten point (1:3 serial dilution; final compound concentration range in assay from 10 µM to […]) titration curve using the following outlined procedure. To each well of a 96-well CytoStar-T scintillating microplate (Perkin Elmer Catalog # RPNQ0163), 25 000 HeLa cells in 100 µL of growth medium comprising: Minimum Essential Media (Life Technologies Catalog #11095-080)+10% (v/v) foetal bovine serum (FBS; Sigma Aldrich Catalog # F2442) was added. These cells were incubated overnight at 37° C. in a humidified atmosphere with 5% (v/v) CO2. After this time the growth medium was removed and replaced with 40 μL assay medium comprising: Hanks balanced salts solution (HBSS; Thermo Fisher Catalog # SH30268.01)+5% (v/v) FBS. Compound stock solutions in DMSO were diluted in assay medium to 2.5× final compound concentration maintaining a constant DMSO concentration of 0.25% (v/v). 40 μL of compound in assay medium was dispensed into individual wells of the Cytostar-T plates and the plates were incubated for 30 minutes under ambient laboratory conditions. Following this incubation, 20 μL of 500 nM [^3H] adenosine (American Radiolabeled Chemicals Inc. […] The amount of radiolabel accumulation was then determined using a Perkin Elmer Topcount NXT microplate reader. In brief, HeLa cells adhere to the bottom of the Cytostar-T plate, uptake of [^3H]adenosine into these cells brings the radiolabel into sufficient proximity to excite the scintillant in the base of the plates. These events are captured by single PMT, time-resolved coincidence counting. IC50 values were determined by 4 parameter robust fit of counts per second values vs. (Log10) compound concentrations.

Chain of BTK enzyme (recombinant full-length BTK, hBTK) (Q06187 whole entry): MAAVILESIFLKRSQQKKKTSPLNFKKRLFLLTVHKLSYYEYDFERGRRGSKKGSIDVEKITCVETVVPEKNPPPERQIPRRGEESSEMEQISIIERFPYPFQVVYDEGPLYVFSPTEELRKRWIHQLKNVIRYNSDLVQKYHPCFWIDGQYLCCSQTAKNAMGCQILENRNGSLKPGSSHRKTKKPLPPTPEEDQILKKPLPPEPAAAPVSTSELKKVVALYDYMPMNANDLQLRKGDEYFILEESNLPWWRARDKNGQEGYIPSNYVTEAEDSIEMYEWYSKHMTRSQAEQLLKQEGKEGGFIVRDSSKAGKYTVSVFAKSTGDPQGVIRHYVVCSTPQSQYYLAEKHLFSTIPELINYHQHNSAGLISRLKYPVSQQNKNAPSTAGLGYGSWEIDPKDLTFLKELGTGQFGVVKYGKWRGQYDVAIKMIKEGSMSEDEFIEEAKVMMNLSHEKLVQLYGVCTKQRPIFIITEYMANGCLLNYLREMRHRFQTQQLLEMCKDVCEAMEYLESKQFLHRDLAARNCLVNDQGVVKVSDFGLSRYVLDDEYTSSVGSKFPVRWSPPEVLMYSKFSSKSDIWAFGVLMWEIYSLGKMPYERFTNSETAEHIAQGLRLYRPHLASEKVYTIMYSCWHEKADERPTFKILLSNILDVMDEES

SMILES	IC50 [1]	IC50 ([2]; Homo sapiens, HeLa)	IC50 [2]
COc1cccc([C@@](C)(O)c2ccc(-c3nc([C@@H]4CC[C@H]5CCC(=O)N5C4)n4ccnc(N)c34)cc2)c1 [Example 44, (6R,8aS)-6-(8-amino-1-{4-[(1S)-1-hydroxy-1-(3-methoxyphenyl)ethyl]phenyl}imidazo[1,5-a]pyrazin-3-yl)hexahydroindolizin-3(2H)-one]	81.4 nM	1780 nM	–
Cc1ccccc1[C@@](C)(O)c1ccc(-c2nc([C@@H]3CC[C@H]4CCC(=O)N4C3)n3ccnc(N)c23)cc1 [Example 47, (6R,8aS)-6-(8-amino-1-{4-[(1S)-1-hydroxy-1-(2-methylphenyl)ethyl]phenyl}imidazo[1,5-a]pyrazin-3-yl)hexahydroindolizin-3(2H)-one]	183 nM	2040 nM	–
COc1ccccc1[C@@](C)(O)c1ccc(-c2nc([C@@H]3CC[C@H]4CCC(=O)N4C3)n3ccnc(N)c23)cc1 [Example 49, (6R,8aS)-6-(8-amino-1-{4-[(1S)-1-hydroxy-1-(2-methoxyphenyl)ethyl]phenyl}imidazo[1,5-a]pyrazin-3-yl)hexahydroindolizin-3(2H)-one]	45.2 nM	2950 nM	–
COc1ccccc1[C@](C)(O)c1ccc(-c2nc([C@@H]3CC[C@H]4CCC(=O)N4C3)n3ccnc(N)c23)cc1 [Example 50, (6R,8aS)-6-(8-amino-1-{4-[(1R)-1-hydroxy-1-(2-methoxyphenyl)ethyl]phenyl}imidazo[1,5-a]pyrazin-3-yl)hexahydroindolizin-3(2H)-one]	243 nM	1220 nM	–
Cc1cccc([C@@](C)(O)c2ccc(-c3nc([C@@H]4CC[C@H]5CCC(=O)N5C4)n4ccnc(N)c34)cc2)c1 [Example 53, (6R,8aS)-6-(8-amino-1-{4-[(1S)-1-hydroxy-1-(3-methylphenyl)ethyl]phenyl}imidazo[1,5-a]pyrazin-3-yl)hexahydroindolizin-3(2H)-one]	6.5 nM	671 nM	–
CC(O)(c1cccc(C(F)(F)F)c1)c1ccc(-c2nc([C@@H]3CC[C@H]4CCC(=O)N4C3)n3ccnc(N)c23)cc1F (stereo partly drawn) [Example 54, (6R,8aS)-6-[8-amino-1-(3-fluoro-4-{1-hydroxy-1-[3-(trifluoromethyl)phenyl]ethyl}phenyl)imidazo [1,5-a]pyrazin-3-yl]hexahydroindolizin-3(2H)-one]	1000 nM	–	473 nM
CCC(O)(c1ccc(-c2nc([C@@H]3CC[C@H]4CCC(=O)N4C3)n3ccnc(N)c23)cc1)c1cccc(C(F)(F)F)c1 (stereo partly drawn) [Example 55, (6R,8aS)-6-[8-amino-1-(4-{1-hydroxy-1-[3-(trifluoromethyl)phenyl]propyl}phenyl)imidazo [1,5-a]pyrazin-3-yl]hexahydroindolizin-3(2H)-one]	1000 nM	–	400 nM
C[C@](O)(c1ccc(-c2nc([C@@H]3CC[C@H]4CCC(=O)N4C3)n3ccnc(N)c23)cc1)c1cccc(OC(F)(F)F)c1 [Example 56, (6R,8aS)-6-[8-amino-1-(4-{(1S)-1-hydroxy-1-[3-(trifluoromethoxy)phenyl]ethyl}phenyl)imidazo [1,5-a]pyrazin-3-yl]hexahydroindolizin-3(2H)-one]	583 nM	901 nM	–
C[C@](O)(c1ccc(-c2nc([C@@H]3CC[C@H]4CCC(=O)N4C3)n3ccnc(N)c23)cc1)c1cccc(-c2ccccc2)c1 [Example 58, (6R,8aS)-6-(8-amino-1-{4-[(1S)-1-biphenyl-3-yl-1-hydroxyethyl]phenyl}imidazo[1,5-a]pyrazin-3-yl)hexahydroindolizin-3(2H)-one]	63.1 nM	450 nM	–
CC(O)(c1cccc(C(F)(F)F)c1)c1ccc(-c2nc([C@@H]3CC[C@H]4CCC(=O)N4C3)n3ccnc(N)c23)cc1F (stereo partly drawn) [Example 60, (6R,8aS)-6-[8-amino-1-(3-fluoro-4-{1-hydroxy-1-[3-(trifluoromethyl)phenyl]ethyl}phenyl)imidazo [1,5-a]pyrazin-3-yl]hexahydroindolizin-3(2H)-one]	36.7 nM	–	3360 nM
CCC(O)(c1ccc(-c2nc([C@@H]3CC[C@H]4CCC(=O)N4C3)n3ccnc(N)c23)cc1)c1cccc(C(F)(F)F)c1 (stereo partly drawn) [Example 61, (6R,8aS)-6-[8-amino-1-(4-{1-hydroxy-1-[3-(trifluoromethyl)phenyl]propyl}phenyl)imidazo [1,5-a]pyrazin-3-yl]hexahydroindolizin-3(2H)-one]	72 nM	–	1710 nM
C[C@@](O)(c1ccc(-c2nc([C@@H]3CC[C@H]4CCCN4C3)n3ccnc(N)c23)cc1)c1cccc(C(F)(F)F)c1 [Example 62, (1R)-1-(4-{8-amino-3-[(6R,8aS)-octahydroindolizin-6-yl]imidazo[1,5-a]pyrazin-1-yl}phenyl)-1-[3-(trifluoromethyl)phenyl] ethanol]	19.7 nM	2300 nM	–
C[C@](O)(c1ccc(-c2nc([C@@H]3CC[C@H]4CCCN4C3)n3ccnc(N)c23)cc1)c1cccc(C(F)(F)F)c1 [Example 63, (1S)-1-(4-{8-amino-3-[(6R,8aS)-octahydroindolizin-6-yl]imidazo[1,5-a]pyrazin-1-yl}phenyl)-1-[3-(trifluoromethyl)phenyl] ethanol]	1000 nM	1470 nM	–
COc1cc(-c2nc([C@@H]3CC[C@H]4CCC(=O)N4C3)n3ccnc(N)c23)ccc1C(C)(O)c1cccc(C(F)(F)F)c1 (stereo partly drawn) [Example 64, (6R,8aS)-6-[8-amino-1-(4-{1-hydroxy-1-[3-(trifluoromethyl)phenyl]ethyl}-3-methoxyphenyl)imidao [1,5-a]pyrazin-3-yl]hexahydroindolizin-3(2H)-one]	59.1 nM	–	936 nM

The next compounds have a lower IC50 [1] than those just listed; values first:

IC50 [1]	IC50 ([2]; Homo sapiens, HeLa)	IC50 [2]	SMILES
1.1 nM	2760 nM	–	COc1cccc([C@](C)(O)c2ccc(-c3nc([C@@H]4CC[C@H]5CCC(=O)N5C4)n4ccnc(N)c34)cc2)c1 [Example 45, (6R,8aS)-6-(8-amino-1-{4-[(1R)-1-hydroxy-1-(3-methoxyphenyl)ethyl]phenyl}imidazo[1,5-a]pyrazin-3-yl)hexahydroindolizin-3(2H)-one]
0.23 nM	3210 nM	–	Cc1cccc([C@](C)(O)c2ccc(-c3nc([C@@H]4CC[C@H]5CCC(=O)N5C4)n4ccnc(N)c34)cc2)c1 [Example 46, (6R,8aS)-6-(8-amino-1-(4-[(1R)-1-hydroxy-1-(3-methylphenyl)ethyl]phenyl}imidazo[1,5-a]pyrazin-3-yl)hexahydroindolizin-3(2H)-one]
2.5 nM	3300 nM	–	Cc1ccccc1[C@](C)(O)c1ccc(-c2nc([C@@H]3CC[C@H]4CCC(=O)N4C3)n3ccnc(N)c23)cc1 [Example 48, (6R,8aS)-6-(8-amino-1-{4-[(1R)-1-hydroxy-1-(2-methylphenyl)ethyl]phenyl}imidazo[1,5-a]pyrazin-3-yl)hexahydroindolizin-3(2H)-one]
5.9 nM	569 nM	–	C[C@](O)(c1ccc(-c2nc([C@@H]3CC[C@H]4CCC(=O)N4C3)n3ccnc(N)c23)cc1)c1cccc(C2CC2)c1 [Example 51, (6R,8aS)-6-(8-amino-1-{4-[(1S)-1-(3-cyclopropylphenyl)-1-hydroxyethyl]phenyl}imidazo[1,5-a]pyrazin-3-yl)hexahydroindolizin-3(2H)-one]
0.47 nM	3830 nM	–	C[C@@](O)(c1ccc(-c2nc([C@@H]3CC[C@H]4CCC(=O)N4C3)n3ccnc(N)c23)cc1)c1cccc(Cl)c1 [Example 52, (6R,8aS)-6-(8-amino-1-{4-[(1R)-1-(3-chlorophenyl)-1-hydroxyethyl]phenyl}imidazo[1,5-a]pyrazin-3-yl)hexahydroindolizin-3(2H)-one]
0.88 nM	3320 nM	–	C[C@@](O)(c1ccc(-c2nc([C@@H]3CC[C@H]4CCC(=O)N4C3)n3ccnc(N)c23)cc1)c1cccc(OC(F)(F)F)c1 [Example 57, (6R,8aS)-6-[8-amino-1-(4-{(1R)-1-hydroxy-1-[3-(trifluoromethoxy)phenyl]ethyl}phenyl)imidazo [1,5-a]pyrazin-3-yl]hexahydroindolizin-3(2H)-one]
0.93 nM	1250 nM	–	C[C@@](O)(c1ccc(-c2nc([C@@H]3CC[C@H]4CCC(=O)N4C3)n3ccnc(N)c23)cc1)c1cccc(-c2ccccc2)c1 [Example 59, (6R,8aS)-6-(8-amino-1-{4-[(1R)-1-biphenyl-3-yl-1-hydroxyethyl]phenyl}imidazo[1,5-a]pyrazin-3-yl)hexahydroindolizin-3(2H)-one]

Reference: patent US10214546B2, “Btk inhibitors” (MERCK SHARP & DOHME CORP., priority 2014, dated 2019)
